In US7541466B2, “Tetrahydroisoquinoline derivatives for treating protein trafficking diseases” (Genzyme Corporation, priority 2003, dated 2009):

How the values were obtained:
[1] = target: T1, ΔF508 CFTR (Homo sapiens, UniProt P13569, DEL508-508); experiment: MQAE chloride transport assay in C127 cells expressing ΔF508 CFTR; assay type: cell-based, murine; settings: for EC50: chloride transport activity, C127 ΔF508 CFTR cells, MQAE; for % of Maximal Response: plateau level in activity at high compound concentration; for % of Maximal Response / Emax: as a percentage of the low temperature response; for Emax: C127, plateau level in activity at high compound concentration, read-out: % of Maximal Response
T1 construct: expressed in transfected cells
T1 sequence (P13569 with tags, fused parts or gaps DEL508-508): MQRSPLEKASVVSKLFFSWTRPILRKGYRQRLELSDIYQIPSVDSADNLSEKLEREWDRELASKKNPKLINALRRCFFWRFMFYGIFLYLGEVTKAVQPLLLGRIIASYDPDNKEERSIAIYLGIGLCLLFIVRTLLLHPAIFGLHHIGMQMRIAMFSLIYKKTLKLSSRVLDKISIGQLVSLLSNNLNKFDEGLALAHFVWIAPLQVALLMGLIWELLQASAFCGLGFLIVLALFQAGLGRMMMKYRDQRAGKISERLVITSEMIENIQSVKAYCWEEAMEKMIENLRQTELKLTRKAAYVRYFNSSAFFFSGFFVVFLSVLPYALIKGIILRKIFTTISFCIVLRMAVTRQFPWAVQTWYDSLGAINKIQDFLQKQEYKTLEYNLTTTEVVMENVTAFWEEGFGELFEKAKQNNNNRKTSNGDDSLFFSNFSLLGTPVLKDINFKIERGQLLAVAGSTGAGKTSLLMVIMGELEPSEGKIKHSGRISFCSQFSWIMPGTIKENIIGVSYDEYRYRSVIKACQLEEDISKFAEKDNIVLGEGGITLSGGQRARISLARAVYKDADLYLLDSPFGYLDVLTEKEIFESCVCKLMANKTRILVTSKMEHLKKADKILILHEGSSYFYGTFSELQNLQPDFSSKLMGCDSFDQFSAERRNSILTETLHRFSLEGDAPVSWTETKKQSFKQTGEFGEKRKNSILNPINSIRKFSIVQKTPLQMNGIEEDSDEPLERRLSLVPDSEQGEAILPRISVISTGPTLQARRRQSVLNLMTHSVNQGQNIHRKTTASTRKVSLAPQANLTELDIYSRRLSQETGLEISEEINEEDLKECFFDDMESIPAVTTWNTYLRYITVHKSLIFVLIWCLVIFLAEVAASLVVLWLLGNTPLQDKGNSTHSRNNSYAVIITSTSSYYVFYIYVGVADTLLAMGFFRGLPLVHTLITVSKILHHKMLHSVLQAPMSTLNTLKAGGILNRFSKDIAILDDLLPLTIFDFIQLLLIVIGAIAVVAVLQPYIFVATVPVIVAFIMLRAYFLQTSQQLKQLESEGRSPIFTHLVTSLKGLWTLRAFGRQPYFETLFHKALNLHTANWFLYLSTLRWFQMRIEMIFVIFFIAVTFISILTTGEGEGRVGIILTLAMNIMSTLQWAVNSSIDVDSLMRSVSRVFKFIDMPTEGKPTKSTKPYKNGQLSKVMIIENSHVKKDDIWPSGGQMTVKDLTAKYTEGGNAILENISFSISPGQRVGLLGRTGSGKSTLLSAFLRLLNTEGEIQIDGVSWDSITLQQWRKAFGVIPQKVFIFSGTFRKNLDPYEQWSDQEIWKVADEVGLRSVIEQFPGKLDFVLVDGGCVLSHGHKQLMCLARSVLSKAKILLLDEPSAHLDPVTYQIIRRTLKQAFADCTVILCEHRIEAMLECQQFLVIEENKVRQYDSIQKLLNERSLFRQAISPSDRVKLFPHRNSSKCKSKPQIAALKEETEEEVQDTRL
Procedure: C127 cells are a murine mammary epithelial cell line obtained from ATCC (#CRL 1616, American Type Culture Collection, Manassas, Va.). C127 cells were transfected with a bovine papilloma virus-based eukaryotic expression vector containing genes for ΔF508 CFTR and neomycin resistance whose expression was driven by a metallothionein promoter. Clonal cell populations resistant to G418 and positive for staining with anti-CFTR antibody were identified.
C127 cells expressing ΔF508 CFTR were grown in microtiter plates in DMEM (Dulbecco's Modified Eagle Medium, Hyclone, Logan, Utah) supplemented with fetal bovine serum, antibiotics, and glutamine in a 37° C., 5% CO2 atmosphere. Once confluent, the cells were loaded overnight with the disclosed compounds and a fluorescent dye sensitive to chloride ion concentration, N-(ethoxycarbonylmethyl)-6-methoxy quinolinium bromide (MQAE) (Verkman, Am. J. Physiol. 259 C375-C388 (1990)).
The following day, cells were washed with chloride-containing buffer to remove extracellular MQAE and to quench intracellular MQAE fluorescence. Chloride buffer was flicked out and replaced with nitrate buffer with added forskolin and IBMX (isobutylmethylxanthine) to stimulate CFTR activity. […] Buffers were adjusted to pH 7.4 and contained: 10 mM HEPES (N-2-Hydroxyethylpiperazine-N′-2-ethanesulfonic acid), 2.4 mM K2HPO4, 0.6 mM KH2PO4, 1.0 mM CaSO4, 1.0 mM MgSO4, 150 mM NaCl or NaNO3, and 25 mM glucose.
The increase in MQAE fluorescence as a function of time was followed using 360 nm excitation and 460 nm emission wavelengths. Fluorescence increased as chloride flowed out of cells through CFTR and the rate of increase in fluorescence over the first five minutes was taken as a measure of chloride transport activity.
Cells were treated with mixtures of up to 100 compounds per well for ca. 18 hours before the assay for chloride transport activity. […] Dose-response curves were generated and compounds were ranked based on their EC50 values and maximal responses (the plateau level in activity at high compound concentration, as a percentage of the low temperature response).

[2] = tested on: wild-type C57black6/J mice; settings: female wild-type mice; 4 g/kg/day dose for 2 days; previously measured; cited from earlier work

EC50 [1] [nM] | % of Maximal Response [1] [%] | Emax [1] [%] | Structure (SMILES) | increase of forskolin response in RPD [2] [mV]
6.3 | 80 |  | CCCCCc1ccc(NC(=O)[C@@H]2Cc3ccccc3CN2C(=O)c2cccc(Oc3ccc(OCC)c(Oc4ccccc4)c3)c2)cc1 [Compound 121, (S)-2-[3-(4-Ethoxy-3-phenoxyphenoxy)benzoyl]-1,2,3,4-tetrahydroisoquinoline-3-carboxylic acid (4-pentylphenyl)amide] | 
10 |  | 83 | CCCCCc1ccc(NC(=O)[C@@H]2Cc3ccccc3CN2C(=O)c2cccc(OC(C)(C)C)c2)cc1 [Compound 122] | 
95 |  | 63 | CCCCCc1ccc(NC(=O)[C@@H]2Cc3ccccc3CN2C(=O)c2cccc(CN3CCOCC3)c2)cc1 [Compound 123] | 
180 |  | 83 | CCCCCc1ccc(NC(=O)[C@@H]2Cc3ccccc3CN2C(=O)c2ccc(OC)c(OC)c2)cc1 [Compound 127] | 
110 |  | 63 | CCCCCc1ccc(NC(=O)[C@@H]2Cc3ccccc3CN2C(=O)c2ccc(OC)c(OCCN3CCOCC3)c2)cc1 [Compound 128, (S)-2-[4-Methoxy-3-(2-morpholin-4-yl-ethoxy)benzoyl]-1,2,3,4-tetrahydroisoquinoline-3-carboxylic acid (4-pentylphenyl)amide] | 
14 |  | 70 | CCCCCc1ccc(NC(=O)[C@@H]2Cc3ccccc3CN2C(=O)c2cc(Cl)cc(Cl)c2)cc1 [Compound 133] | 
290 |  | 56 | CCCCCc1ccc(NC(=O)[C@@H]2Cc3ccccc3CN2C(=O)c2ccc3c(c2)OCCO3)cc1 [Compound 135] | 
180 |  | 69 | CCCCCc1ccc(NC(=O)[C@@H]2Cc3ccccc3CN2C(=O)c2cc(OCCN3CCOCC3)cc(OC(C)C)c2)cc1 [Compound 137] | 
93 |  | 67 | CCCCCc1ccc(NC(=O)[C@@H]2Cc3ccccc3CN2C(=O)c2cc(OC)c(OC)c(OC)c2)cc1 [Compound 138] | 
4.4 |  | 84 | CCCCCc1ccc(NC(=O)C2Cc3ccccc3CN2C(=O)c2cccc(OC(C)CC)c2)cc1 (stereo not shown) [Compound 140] | 
12 |  | 84 | CCCCCc1ccc(NC(=O)[C@@H]2Cc3ccccc3CN2C(=O)c2cccc(OC(CC)CC)c2)cc1 [Compound 141] | 
8 |  | 88 | CCCCCc1ccc(NC(=O)[C@@H]2Cc3ccccc3CN2C(=O)c2cccc(OC(C)C(C)C)c2)cc1 (stereo partly shown) [Compound 142] | 
5.9 |  | 85 | CCCCCc1ccc(NC(=O)[C@@H]2Cc3ccccc3CN2C(=O)c2ccc(C)c(OC(C)C)c2)cc1 [Compound 143] | 
25 | 75 |  | CCCCCc1ccc(NC(=O)[C@@H]2Cc3ccccc3CN2C(=O)c2cc(OC(C)C)c(OC)cn2)cc1 [Compound 145, (S)-2-(4-Isopropoxy-5-methoxypyridine-2-carbonyl)-1,2,3,4-tetrahydroisoquinoline-3-carboxylic acid(4-pentylphenyl)amide] | 
41 |  | 32 | CCCCCc1ccc(NC(=O)[C@@H]2Cc3ccccc3CN2C(=O)c2cc(Oc3cccnc3)ccn2)cc1 [Compound 147] | 
 |  |  | C[N+](C)(C)[O-] [trimethylamine oxide, trimethylamine-N-oxide] | 7.5
